The source of these data is US20170121344A1 (Siga Technologies, Inc., priority 2009, published 2017).

The test system of this experiment is Dengue-2 (Strain New Guinea C). The experiment is described as follows: Viral yield assay against Dengue-2 in Vero cells. Format: cell-based, Dengue virus. The note with it: Dengue virus, read-out: Activity (EC50 in μM) DENV-2. In short, it runs like this:
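Virus yield, titered on Vero cells from cultures harvested at 48 h post infection, gave the EC50. Cultures were infected at MOI 0.1 with dengue-2 and treated with compound or DMSO at 37° C. DENV-1 and DENV-4 were determined similarly.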

The mark [1] stands for this setting: DENV2, viral yield assay, Vero cells, MOI 0.1, 48 hours post infection.

Where two headings read alike, the source gives them in different places. A value given as a limit tells only on which side of the number the result lay.

As a reminder, the EC50 is the concentration that produces a half-maximal response. With `COc1cccc(-c2ccc3c(N)c(C(=O)Nc4ccc5c(c4)OCCO5)sc3n2)c1` [Compound 499, 3-amino-N-(2,3-dihydor-1,4-benzodioxin-6-yl)-6-(3-methoxyphenyl)thieno[2,3-b] pyridine-2-carboxamide], under setting [1], the EC50 is below 5 µM.

Regarding `COc1ccc(NC(=O)c2sc3nc(-c4ccc(OC)c(OC)c4)ccc3c2N)c(C)c1` [Compound 500, 3-amino-6-(3,4-dimethoxyphenyl)-N-(4-methoxy-2-methyl-phenyl)thieno[2,3-b] pyridine-2-carboxamide], under setting [1], the EC50 was below 5 µM.

As to `CCOc1ccccc1NC(=O)c1sc2nc(-c3cccc(OC)c3)ccc2c1N` [Compound 501, 3-amino-N-(2-ethoxyphenyl)-6-(3-methoxyphenyl)thieno[2,3-b]pyridine-2-carboxamide], the EC50 under setting [1] was below 5 µM.

Regarding `COc1cccc(-c2ccc3c(N)c(C(=O)Nc4ccc(F)cc4F)sc3n2)c1` [Compound 502, 3-amino-N-(2,4-difluorophenyl)-6-(3-methoxyphenyl)thieno[2,3-b]pyridine-2-carboxamide], the EC50 under setting [1] is below 5 µM.

`COc1cccc(NC(=O)c2sc3nc(-c4cccc(OC)c4)ccc3c2N)c1` [Compound 503, 3-amino-N,6-bis(3-methoxyphenyl) thieno[2,3-b]pyridine-2-carboxamide]: the EC50 under setting [1] is below 5 µM.

With `COc1cccc(-c2ccc3c(N)c(C(=O)Nc4ccccc4OC)sc3n2)c1` [Compound 504, 3-amino-N-(2-methoxyphenyl)-6-(3-methoxyphenyl)thieno[2,3-b]pyridine-2-carboxamide], the EC50 under setting [1] is below 5 µM.

With `COc1cccc(-c2ccc3c(N)c(C(=O)Nc4cccc(SC)c4)sc3n2)c1` [Compound 505, 3-amino-6-(3-methoxyphenyl)-N-(3-methylsulfanylphenyl)thieno[2,3-b] pyridine-2-carboxamide], the half-maximal effective concentration (EC50) under setting [1] is below 5 µM.

Regarding `COc1cccc(-c2ccc3c(N)c(C(=O)Nc4ccc(OC)c(OC)c4)sc3n2)c1` [Compound 508, 3-amino-N-(3,4-dimethoxyphenyl)-6-(3-methoxyphenyl)thieno[2,3-b]pyridine-2-carboxamide], the EC50 (DENV2, Vero, 48 h) is below 5 µM.

For the molecule `CCOc1ccccc1NC(=O)c1sc2nc(-c3ccc(OC)c(OC)c3)ccc2c1N` [Compound 509, 3-amino-6-(3,4-dimethoxyphenyl)-N-(2-ethoxyphenyl)thieno[2,3-b]pyridine-2-carboxamide], the EC50 under setting [1] is below 5 µM.

Consider `COc1cccc(-c2ccc3c(N)c(C(=O)Nc4ccc5c(c4)OCO5)sc3n2)c1` [Compound 511, 3-amino-N-(1,3-benzodioxol-5-yl)-6-(3-methoxyphenyl)thieno[2,3-b]pyridine-2-carboxamide], for which, under setting [1], the EC50 is below 5 µM.

`COc1cccc(-c2ccc3c(N)c(C(=O)Nc4ccc(C(C)=O)cc4)sc3n2)c1` [Compound 513, N-(4-acetylphenyl)-3-amino-6-(3-methoxyphenyl)thieno[2,3-b]pyridine-2-carboxamide]: the EC50 (DENV2, Vero, 48 h) was below 5 µM.

As to `COc1cccc(-c2ccc3c(N)c(C(=O)Nc4cccc(F)c4C)sc3n2)c1` [Compound 515, 3-amino-N-(3-fluoro-2-methyl-phenyl)-6-(3-methoxyphenyl)thieno[2,3-b] pyridine-2-carboxamide], the EC50 under setting [1] is below 5 µM.

In the case of `COc1cccc(-c2ccc3c(N)c(C(=O)Nc4cc(F)ccc4F)sc3n2)c1` [Compound 516, 3-amino-N-(2,5-difluorophenyl)-6-(3-methoxyphenyl)thieno[2,3-b]pyridine-2-carboxamide], the EC50 under setting [1] is below 5 µM.

Regarding `CCOc1ccccc1NC(=O)c1sc2nc(-c3ccc4c(c3)OCO4)ccc2c1N` [Compound 517, 3-amino-6-(1,3-benzodioxol-5-yl)-N-(2-ethoxyphenyl)thieno[2,3-b]pyridine-2-carboxamide], the EC50 under setting [1] is below 5 µM.

For the molecule `COc1ccc(OC)c(NC(=O)c2sc3nc(-c4ccc(OC)c(OC)c4)ccc3c2N)c1` [Compound 518, 3-amino-N-(2,5-dimethoxyphenyl)-6-(3,4-dimethoxyphenyl)thieno[2,3-b]pyridine-2-carboxamide], the EC50 under setting [1] was below 5 µM.

As for `COc1cccc(-c2ccc3c(N)c(C(=O)Nc4ccc(Cl)cc4F)sc3n2)c1` [Compound 519, 3-amino-N-(4-chloro-2-fluoro-phenyl)-6-(3-methoxyphenyl)thieno[2,3-b]pyridine-2-carboxamide], the EC50 under setting [1] was below 5 µM.

On to `COc1cccc(-c2ccc3c(N)c(C(=O)Nc4cc(OC)c(OC)c(OC)c4)sc3n2)c1` [Compound 520, 3-amino-6-(3-methoxyphenyl)-N-(3,4,5-trimethoxyphenyl)thieno[2,3-b]pyridine-2-carboxamide], for which, under setting [1], the EC50 was below 5 µM.

For the molecule `COc1cccc(-c2ccc3c(N)c(C(=O)Nc4ccccc4C)sc3n2)c1` [Compound 521, 3-amino-6-(3-methoxyphenyl)-N-(o-tolyl)thieno[2,3-b]pyridine-2-carboxamide], the EC50 under setting [1] is below 5 µM.

As to `COc1cccc(-c2ccc3c(N)c(C(=O)Nc4ccc(C)c(F)c4)sc3n2)c1` [Compound 523, 3-amino-N-(3-fluoro-4-methyl-phenyl)-6-(3-methoxyphenyl)thieno[2,3-b] pyridine-2-carboxamide], the EC50 under setting [1] was below 5 µM.

Turning to `COc1ccc(-c2ccc3c(N)c(C(=O)Nc4cc(C)ccc4C)sc3n2)cc1OC` [Compound 524, 3-amino-6-(3,4-dimethoxyphenyl)-N-(2,5-dimethylphenyl)thieno[2,3-b]pyridine-2-carboxamide], the EC50 under setting [1] is below 5 µM.

As for `COc1cccc(-c2ccc3c(N)c(C(=O)Nc4ccc(F)c(F)c4)sc3n2)c1` [Compound 525, 3-amino-N-(3,4-difluorophenyl)-6-(3-methoxyphenyl)thieno[2,3-b]pyridine-2-carboxamide], the EC50 under setting [1] is below 5 µM.

For `COc1cccc(-c2ccc3c(N)c(C(=O)Nc4ccc(F)c(Cl)c4)sc3n2)c1` [Compound 526, 3-amino-N-(3-chloro-4-fluoro-phenyl)-6-(3-methoxyphenyl)thieno[2,3-b] pyridine-2-carboxamide], the EC50 under setting [1] is below 5 µM.

In the case of `COc1ccc(NC(=O)c2sc3nc(-c4ccc(Cl)cc4)ccc3c2N)cc1` [Compound 527, 3-amino-6-(4-chlorophenyl)-N-(4-methoxyphenyl)thieno[2,3-b]pyridine-2-carboxamide], the EC50 under setting [1] was below 5 µM.

Regarding `Cc1ccc(NC(=O)c2sc3nc(-c4ccc5c(c4)OCO5)ccc3c2N)cc1C` [Compound 528, 3-amino-6-(1,3-benzodioxol-5-yl)-N-(3,4-dimethylphenyl)thieno[2,3-b]pyridine-2-carboxamide], the EC50 under setting [1] is below 5 µM.

Consider `COc1ccc(C(F)(F)F)cc1NC(=O)c1sc2nc(-c3ccc(OC)c(OC)c3)ccc2c1N` [Compound 531, 3-amino-6-(3,4-dimethoxyphenyl)-N-[2-methoxy-5-(trifluoromethyl)phenyl]thieno [2,3-b]pyridine-2-carboxamide], for which the EC50 under setting [1] was below 5 µM.

With `COc1ccc(NC(=O)c2sc3nc(-c4ccc(OC)c(OC)c4)ccc3c2N)c(OC)c1` [Compound 536, 3-amino-N-(2,4-dimethoxyphenyl)-6-(3,4-dimethoxyphenyl)thieno[2,3-b]pyridine-2-carboxamide], under setting [1], the EC50 is below 5 µM.

For the molecule `Nc1c(C(=O)Nc2ccc(Cl)cc2Cl)sc2nc(-c3ccc4c(c3)OCO4)ccc12` [Compound 537, 3-amino-6-(1,3-benzodioxol-5-yl)-N-(2,4-dichlorophenyl)thieno[2,3-b]pyridine-2-carboxamide], under setting [1], the EC50 is below 5 µM.

Consider `Nc1c(C(=O)Nc2ccccc2F)sc2nc(-c3ccc4c(c3)OCO4)ccc12` [Compound 538, 3-amino-6-(1,3-benzodioxol-5-yl)-N-(2-fluorophenyl)thieno[2,3-b]pyridine-2-carboxamide], for which, under setting [1], the EC50 is below 5 µM.

Turning to `COc1ccc(-c2ccc3c(N)c(C(=O)Nc4ccc(F)cc4Cl)sc3n2)cc1OC` [Compound 539, 3-amino-N-(2-chloro-4-fluoro-phenyl)-6-(3,4-dimethoxyphenyl)thieno[2,3-b] pyridine-2-carboxamide], under setting [1], the EC50 was below 5 µM.

Take `COc1ccc(-c2ccc3c(N)c(C(=O)Nc4cccc(Cl)c4)sc3n2)cc1OC` [Compound 540, 3-amino-N-(3-chlorophenyl)-6-(3,4-dimethoxyphenyl)thieno[2,3-b]pyridine-2-carboxamide]: under setting [1], the EC50 was below 5 µM.

Take `COc1ccc(-c2ccc3c(N)c(C(=O)Nc4ccc(F)cc4)sc3n2)cc1OC` [Compound 541, 3-amino-6-(3,4-dimethoxyphenyl)-N-(4-fluorophenyl)thieno[2,3-b]pyridine-2-carboxamide]: under “DENV2, Vero, 48 h”, the EC50 is below 5 µM.

Regarding `COc1cccc(-c2ccc3c(N)c(C(=O)Nc4ccc(C)c(Cl)c4)sc3n2)c1` [Compound 544, 3-amino-N-(3-chloro-4-mehtyl-phenyl)-6-(3-methoxyphenyl)thieno[2,3-b] pyridine-2-carboxamide], the concentration giving a half-maximal response (EC50) under setting [1] was below 5 µM.

With `COc1cccc(-c2ccc3c(N)c(C(=O)Nc4ccc(Cl)cc4Cl)sc3n2)c1` [Compound 545, 3-amino-N-(2,4-dichlorophenyl)-6-(3-methoxyphenyl)thieno[2,3-b]pyridine-2-carboxamide], the EC50 under setting [1] was below 5 µM.

For `COc1cccc(-c2ccc3c(N)c(C(=O)Nc4cc(OC)ccc4Cl)sc3n2)c1` [Compound 548, 3-amino-N-(2-chloro-5-methoxy-phenyl)-6-(3-methoxyphenyl)thieno[2,3-b] pyridine-2-carboxamide], the EC50 under setting [1] is below 5 µM.

With `COc1cccc(-c2ccc3c(N)c(C(=O)Nc4ccc(Br)cc4C)sc3n2)c1` [Compound 549, 3-amino-N-(4-bromo-2-methyl-phenyl)-6-(3-methoxyphenyl)thieno[2,3-b] pyridine-2-carboxamide], the EC50 under setting [1] was below 5 µM.

For the molecule `COc1cccc(-c2ccc3c(N)c(C(=O)Nc4ccc(F)cc4C)sc3n2)c1` [Compound 551, 3-amino-N-(4-fluoro-2-methyl-phenyl)-6-(3-methoxyphenyl)thieno[2,3-b] pyridine-2-carboxamide], the EC50 under setting [1] is below 5 µM.
